Assay results taken from patent US9056862B2, “Thioxothiazolidine derivative having Ras function inhibitory effect” (NATIONAL UNIVERSITY CORPORATION KOBE UNIVERSITY, priority 2011, dated 2015).

Assays:
Ras-Raf binding = target: T1, Ras-Raf binding; assay: In vitro binding assay: Ras-Raf binding inhibition (GST-Raf on resin, GTPγ[35S]-labeled Ras, scintillation counting); conditions: GST-Raf fusion protein on resin, radioactive Ras, compound dissolved in 10% DMSO
T1 construct: fused on or other part: GST tag on Ras was cleaved off with PreScission protease before the test
Experimental: • 1) A fusion protein of Raf (target protein of Ras) and GST (glutathione S-transferase) was expressed in Escherichia coli using GST fusion protein expression vector (pGEX-6P-1 vector (GE Healthcare)). The expressed GST-Raf fusion protein was immobilized on an affinity carrier for purification (glutathione Sepharose 4B: resin (GE Healthcare)). • 2) Radioisotope-labeled Ras
GTPγ[^35S] (Perkin Elmer), which is one of the GTP analogs, was added to Ras in which GST tag was cleaved using GST fusion protein cleavage protease (PreScission protease (GE Healthcare)) to prepare radioisotope-labeled Ras. • 3) Measurement of Ras-Raf binding inhibition activity
GST-Raf fusion protein immobilized on the resin in the above-mentioned 1) and the radioactive Ras prepared in the above-mentioned 2) were incubated in the presence of various concentrations of a compound dissolved in 10% DMSO to promote the binding reaction between Ras and Raf. The resin in the reaction solution was washed, and then, the complex of GST-Raf fusion protein and radioactive Ras was eluted by adding glutathione. The binding activity between Ras and Raf was measured by scintillation counting of the radioactivity of the eluate. Thus, the Ras-Raf binding inhibition activity by addition of various compounds was evaluated.

[1] = tested on: human colorectal cancer cell line, SW480, which has active form of K-Ras; assay: In vivo assay: tumor growth inhibition in SW480 xenograft in nude mice; conditions: 80 mg/kg orally once a day, five consecutive days per week, after three-week administration; SW480 subcutaneous in female nude mice; control group = 100%
Experimental: A cell suspension (about 2×10^6 cells) of human colorectal cancer cell line, SW480, which has active form of K-Ras, was subcutaneously inoculated and implanted with a syringe at the right flank of 6 to 8-week-old nude mice (female). After a tumor grew to the grossly recognizable size (40-100 mm^3), a compound (80 mg/kg) dissolved in a solvent (Cremophor EL:Ethanol:Water=1:1:6) was orally administered once a day for five consecutive days per week. This is considered as the compound administration group. A solvent alone was administered to control group in the same manner. After the compound administration started, tumor volumes of both the groups were measured twice a week. Tumor growth inhibition rates were calculated by comparing tumor volumes of control group (100%) and those of compound administration group after three-week administration to evaluate anticancer activity of a compound. The tumor growth inhibition rates in the case of orally administering compounds of the present invention at 80 mg/Kg are shown in the following Table 7.

Compound	IC50 (Ras-Raf binding) [µM]	tumor growth inhibition rate (%) [1] [%]
O=C1/C(=C/c2ccc(Oc3ccccc3)cc2)SC(=S)N1NC1=NS(=O)(=O)c2ccccc21 [Example 1, 3-[(4-oxo-5-(4-phenoxybenzylidene)-2-thioxothiazolidin-3-yl)amino]-1,2-benzisothiazole 1,1-dioxide]	70	88
O=C1/C(=C/c2ccc(Br)cc2)SC(=S)N1NC1=NS(=O)(=O)c2ccccc21 [Example 6]	400	85
O=C1/C(=C/c2ccc([N+](=O)[O-])cc2[N+](=O)[O-])SC(=S)N1NC1=NS(=O)(=O)c2ccccc21 [Example 7]	200	85
O=C1/C(=C/c2cccc(Oc3ccccc3)c2)SC(=S)N1NC1=NS(=O)(=O)c2ccccc21 [Example 12]	50	86
O=C1/C(=C/c2ccccc2Oc2ccccc2)SC(=S)N1NC1=NS(=O)(=O)c2ccccc21 [Example 13]	100	70
O=C1/C(=C/c2ccc(OCc3ccccc3)cc2)SC(=S)N1NC1=NS(=O)(=O)c2ccccc21 [Example 16]	100	69
O=C1/C(=C/c2ccccc2OCCOc2ccccc2)SC(=S)N1NC1=NS(=O)(=O)c2ccccc21 [Example 53]	160	
Cc1ccc(OCCOc2ccccc2/C=C2\SC(=S)N(NC3=NS(=O)(=O)c4ccccc43)C2=O)cc1 [Example 55]	100	
O=C1/C(=C/c2ccccc2OCCOc2ccc([N+](=O)[O-])cc2)SC(=S)N1NC1=NS(=O)(=O)c2ccccc21 [Example 56]	90	62
CC(C)(C)OC(=O)NCCOc1cccc(C=C2SC(=S)N(NC3=NS(=O)(=O)c4ccccc43)C2=O)c1 [Example 167, 3-[(4-Oxo-5-(3-(2-t-butoxycarbonylaminoethyloxy)benzylidene)-2-thioxothiazolidin-3-yl)amino]-1,2-benzothiazole 1,1-dioxide]	360	
